One assay addresses LRRK2 (Homo sapiens, UniProt Q5S007). Put plainly: LRRK2-LRRK2 G2019S-Assay (LanthaScreen Eu Kinase Binding Assay). The following applies: 5 nM LRRK2 or their mutants, 10 nM tracer 236, RT 1 h; read-out: LRRK2 Activities: IC50. In a few lines:
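Kinase (wild type or mutant, 5 nM) mixed with Eu-anti-GST antibody (2 nM), then 10 nM Alexa Fluor 647 tracer 236 added. After 1 h at room temperature, the acceptor/donor (665/615 nm) FRET ratio was measured. IC50 was fitted from concentration–ratio curves.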

Another assay has as its target T1, SYK kinase (Homo sapiens, UniProt P43405).
T1 construct: purchased Invitrogen, Carlsbad
Put plainly: SYK Assay (OMNIA KINASE ASSAY, SOX peptide fluorescence). The assay is classed as biochemical. The following applies: apparent Ki calculated from the IC50 using the Cheng-Prusoff equation; 1 mM ATP, 30° C.; read-out: SYK Activities: Ki. In a few lines:
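Apparent Ki values are derived by Cheng-Prusoff from IC50s of sigmoidal fits of reaction rate against compound concentration. Rates come from chelation-enhanced SOX fluorescence (λex 360/λem 485 nm, read every 30 s over 30 min) as the kinase phosphorylates 10 µM Omnia Tyr 7 peptide at 30 °C, with 1 mM ATP and 0.2 mM DTT.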

Chain of LRRK2 (Q5S007 970-2527 limits assumed): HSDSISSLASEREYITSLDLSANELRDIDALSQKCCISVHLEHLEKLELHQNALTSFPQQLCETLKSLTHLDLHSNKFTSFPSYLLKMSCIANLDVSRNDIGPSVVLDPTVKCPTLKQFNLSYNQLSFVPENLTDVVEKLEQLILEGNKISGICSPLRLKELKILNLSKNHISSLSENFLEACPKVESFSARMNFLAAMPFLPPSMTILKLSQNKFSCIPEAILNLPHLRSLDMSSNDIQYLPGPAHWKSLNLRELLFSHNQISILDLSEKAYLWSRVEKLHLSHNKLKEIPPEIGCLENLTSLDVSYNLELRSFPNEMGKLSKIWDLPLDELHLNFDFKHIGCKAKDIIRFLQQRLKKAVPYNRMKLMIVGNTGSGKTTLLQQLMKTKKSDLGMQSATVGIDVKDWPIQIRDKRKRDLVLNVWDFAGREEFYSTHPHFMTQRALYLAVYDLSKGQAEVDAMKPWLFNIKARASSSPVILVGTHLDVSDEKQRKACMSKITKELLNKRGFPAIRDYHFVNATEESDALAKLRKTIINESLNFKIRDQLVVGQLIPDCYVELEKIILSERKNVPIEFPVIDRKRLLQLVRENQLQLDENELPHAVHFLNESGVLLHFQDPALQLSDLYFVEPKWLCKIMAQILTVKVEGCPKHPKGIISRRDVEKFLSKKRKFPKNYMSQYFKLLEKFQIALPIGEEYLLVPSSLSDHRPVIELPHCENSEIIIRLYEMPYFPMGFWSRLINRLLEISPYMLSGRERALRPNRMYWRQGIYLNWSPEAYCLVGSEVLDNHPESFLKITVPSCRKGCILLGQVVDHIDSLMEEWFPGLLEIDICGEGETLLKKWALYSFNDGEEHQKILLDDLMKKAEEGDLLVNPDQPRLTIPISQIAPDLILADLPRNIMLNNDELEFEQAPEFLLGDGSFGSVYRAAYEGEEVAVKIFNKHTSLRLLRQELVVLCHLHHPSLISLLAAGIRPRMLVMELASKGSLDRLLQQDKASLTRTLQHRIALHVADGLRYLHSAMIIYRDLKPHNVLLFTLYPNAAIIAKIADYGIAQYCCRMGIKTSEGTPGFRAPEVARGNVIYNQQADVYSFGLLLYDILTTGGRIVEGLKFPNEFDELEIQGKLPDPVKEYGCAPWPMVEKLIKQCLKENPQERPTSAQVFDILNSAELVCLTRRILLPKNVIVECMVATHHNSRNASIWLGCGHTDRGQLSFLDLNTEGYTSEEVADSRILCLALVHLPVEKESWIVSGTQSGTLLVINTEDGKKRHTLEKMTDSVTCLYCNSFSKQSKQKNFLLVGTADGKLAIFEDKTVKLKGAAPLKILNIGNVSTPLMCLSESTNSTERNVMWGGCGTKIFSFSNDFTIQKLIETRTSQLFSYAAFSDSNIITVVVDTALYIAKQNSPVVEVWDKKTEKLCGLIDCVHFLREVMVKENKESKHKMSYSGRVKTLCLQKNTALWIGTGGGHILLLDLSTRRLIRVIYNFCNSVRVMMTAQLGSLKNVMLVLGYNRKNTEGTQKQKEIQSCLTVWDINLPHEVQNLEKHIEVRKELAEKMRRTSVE

For the compound `Oc1cccc(Nc2nc(-c3ccsc3)nc3cn[nH]c23)c1` [Example #85, 3-((5-(thiophen-3-yl)-1H-pyrazolo[4,3-d]pyrimidin-7-yl)amino)phenol], on LRRK2, the concentration for half-maximal inhibition (IC50) is 0.1 to 1 µM. The Ki on SYK kinase is 0.01 to 0.1 µM.

As to `O=C1CCc2ccc(Nc3nc(-c4ccc5cn[nH]c5c4)nc4cn[nH]c34)cc2N1` [Example #269, 7-((5-(1H-indazol-6-yl)-1H-pyrazolo[4,3-d]pyrimidin-7-yl)amino)-3,4-dihydroquinolin-2(1H)-one], on LRRK2, the IC50 was less than 0.01 µM. Also, the Ki at SYK kinase is less than 0.01 µM.

For `COc1ccc(Nc2nc(-c3ncco3)nc3cn[nH]c23)cc1OC` [Example #205, N-(3,4-dimethoxyphenyl)-5-(oxazol-2-yl)-1H-pyrazolo[4,3-d]pyrimidin-7-amine], on LRRK2, the IC50 was 0.1 to 1 µM. The Ki on SYK kinase is less than 0.01 µM.

Consider `Fc1cc(Nc2nc(-c3cccs3)nc3cn[nH]c23)ccc1N1CCOCC1` [Example #296, N-(3-fluoro-4-morpholinophenyl)-5-(thiophen-2-yl)-1H-pyrazolo[4,3-d]pyrimidin-7-amine], for which, on LRRK2, the IC50 lay within 0.1 to 1 µM. Also, the Ki on SYK kinase was less than 0.01 µM.

`CN(C)c1ccc(Nc2nc(-c3ccsc3)nc3cn[nH]c23)cc1` [Example #75, N1,N1-dimethyl-N4-(5-(thiophen-3-yl)-1H-pyrazolo[4,3-d]pyrimidin-7-yl)benzene-1,4-diamine]: the IC50 at LRRK2 was 0.01 to 0.1 µM. Moreover, the Ki at SYK kinase is less than 0.01 µM.

For the compound `c1cc(N2CCOCC2)ccc1Nc1nc(-c2ccc(N3CCCC3)nc2)nc2cn[nH]c12` [Example #33, N-(4-morpholinophenyl)-5-(6-(pyrrolidin-1-yl)pyridin-3-yl)-1H-pyrazolo[4,3-d]pyrimidin-7-amine], the IC50 on LRRK2 fell in the range of 0.1 to 1 µM. Moreover, the Ki on SYK kinase is less than 0.01 µM.

For the compound `COc1ccc(Nc2nc(-c3cccc(S(N)(=O)=O)c3)nc3cn[nH]c23)cc1OC` [Example #183, 3-(7-((3,4-dimethoxyphenyl)amino)-1H-pyrazolo[4,3-d]pyrimidin-5-yl)benzenesulfonamide], at LRRK2, the half-inhibitory concentration (IC50) fell in the range of 0.01 to 0.1 µM. Also, on SYK kinase, the Ki was less than 0.01 µM.

As to `COc1ccc(Nc2nc(-c3ccccc3)nc3cn[nH]c23)cc1OC` [Example #6, N-(3,4-dimethoxyphenyl)-5-phenyl-1H-pyrazolo[4,3-d]pyrimidin-7-amine], the IC50 at LRRK2 fell in the range of 0.1 to 1 µM. Also, the Ki at SYK kinase was less than 0.01 µM.

`O=C1COc2ccc(Nc3nc(-c4cccs4)nc4cn[nH]c34)cc2N1` [Example #162, 6-((5-(thiophen-2-yl)-1H-pyrazolo[4,3-d]pyrimidin-7-yl)amino)-2H-benzo[b][1,4]oxazin-3(4H)-one]: at LRRK2, the half-maximal inhibitory concentration (IC50) was in the range of 0.1 to 1 µM. For the same compound, the Ki on SYK kinase is less than 0.01 µM.

For `c1ccn2cc(-c3nc(Nc4ccc5[nH]ncc5c4)c4[nH]ncc4n3)nc2c1` [Example #126, 5-(imidazo[1,2-a]pyridin-2-yl)-N-(1H-indazol-5-yl)-1H-pyrazolo[4,3-d]pyrimidin-7-amine], the IC50 at LRRK2 lay in the range of 0.1 to 1 µM. In addition, at SYK kinase, the Ki was 0.01 to 0.1 µM.

In the case of `c1csc(-c2nc(Nc3ccc4c(c3)COC4)c3[nH]ncc3n2)c1` [Example #304, N-(1,3-dihydroisobenzofuran-5-yl)-5-(thiophen-2-yl)-1H-pyrazolo[4,3-d]pyrimidin-7-amine], the IC50 at LRRK2 was in the range of 0.1 to 1 µM. For the same compound, at SYK kinase, the Ki is less than 0.01 µM.

Turning to `c1csc(-c2nc(Nc3ccc(N4CCOCC4)cc3)c3[nH]ncc3n2)c1` [Example #69, N-(4-morpholinophenyl)-5-(thiophen-2-yl)-1H-pyrazolo[4,3-d]pyrimidin-7-amine], the IC50 at LRRK2 lay within 0.01 to 0.1 µM. On SYK kinase, the Ki was less than 0.01 µM.

Regarding `CN1CCC(c2nc(Nc3ccc4cn[nH]c4c3)c3[nH]ncc3n2)CC1` [Example #27, N-(1H-indazol-6-yl)-5-(1-methylpiperidin-4-yl)-1H-pyrazolo[4,3-d]pyrimidin-7-amine], at LRRK2, the IC50 is 0.1 to 1 µM. For the same compound, the Ki on SYK kinase was 0.01 to 0.1 µM.

In the case of `COc1cccc(-c2nc(Nc3ccc4cn[nH]c4c3)c3[nH]ncc3n2)c1` [Example #67, N-(1H-indazol-6-yl)-5-(3-methoxyphenyl)-1H-pyrazolo[4,3-d]pyrimidin-7-amine], on LRRK2, the half-inhibitory concentration (IC50) fell in the range of 0.1 to 1 µM. Also, at SYK kinase, the Ki is less than 0.01 µM.

The values above are taken from patent US9802937B2, “Substituted pyrazolo{4,3-D}pyrimidines as kinase inhibitors” (ORIGENIS GMBH, priority 2011, dated 2017).
